Tests used:
[1] = system: HCC PDX models 575, 658, and LI-011; experiment: Clonogenic assay on patient-derived xenograft tumor cells; assay type: cell-based; details: Homo sapiens, 336 h; 575, 658, LI-011; 14 days continuous exposure; P=0.023; read-out: IC50 values, all PDX models examined
Description: Tumor xenografts (patient-derived: 575, […], and LI-011; as well as cell line-derived: HepG2) were passaged as subcutaneous xenografts in NMRI nu/nu mice. Once tumor volumes reached 600-1000 mm^3, tumors were harvested according to FELASA and GV-SOLAS animal welfare guidelines. Tumors were mechanically disaggregated and subsequently incubated with collagenase type IV (41 U/mL), DNase I (125 U/mL), hyaluronidase type III (100 U/mL), and dispase II (1 U/mL) in RPMI 1640 medium at 37° C. for 60-120 minutes. Cells were filtered through 100 μm and 40 μm mesh size sieves and washed with the same media devoid of enzymes and stored in liquid nitrogen vapor phase.
The clonogenic assay was carried out in 96 well, ultra-low attachment plates. Frozen aliquots of tumor cells were prepared from HepG2 HCC cells and the three tumor xenografts described above. Cells were thawed in Iscove's Modified Dulbecco's Medium (IMDM), supplemented with 20% (v/v) fetal calf serum, 50 μg/ml gentamicin, 1% ethanol, and 0.4% (w/v) agar prior to use. Test wells were first layered with 100 μl of the same soft-agar medium followed by 50 μl of media with tumor cells. Following solidification, the soft-agar layer was covered with 90 μl of the same culture medium without agar. After 24 hours, 10 μl of test compounds or control medium were added and left for 14 days (continuous exposure, 100 μl drug overlay). […]

[2] = Clinical study, patients; cited from earlier work

What does the source list for `CNC(=O)c1cc(Oc2ccc(NC(=O)Nc3ccc(Cl)c(C(F)(F)F)c3)cc2)ccn1` [Sorafenib]?
IC50 [1]: 14.3 µM; Tmax [2]: 2 to 9.5 h; Total body clearance [2]: 0.11 L/h/kg; Volume of distribution [2]: 2.66 L/kg

Source: patent US20260232699A1, “COMPOSITIONS OF A CANNABINOID AND A KINASE INHIBITOR FOR THE TREATMENT OF CANCER” (SINOVEDA CANADA INC., priority 2023, published 2026)
